Test results from US20230303712A1, “METHODS OF TREATING GLIOBLASTOMA” (Ramot at Tel-Aviv University Ltd., priority 2020, published 2023).
Entries after “also recorded” stand apart in the source; their conditions may differ.

Columns and labels:
[1] = test system: iAGR53 tumors; test: SELPi treatment in murine mesenchymal iAGR53 GB model; format: in vivo, C57BL/6 mice; details: iAGR53, 16 mg/kg SELPi IV QOD
Method: (§1) Tumor volume was evaluated by MRI. […] Twelve days post cell inoculation, 3 mice per group were euthanized and brain were resected and further processed for histology analysis. […] Brain cannulas (NBT) were implanted intraventricularly in the co-lateral hemisphere and the mice were treated stereotactically via the cannulas (1 µl at 0.2 µl/min flow rate) with PBS, 2 mg/kg SELPi dissolved in DMSO or vehicle (DMSO). Three weeks post cell-inoculation, the mice were euthanized, the cannulas were removed, and tumor volume was evaluated by MRI (MR solutions). Brains were resected for immunostaining.
SELPi treatments. KF 38789 (SELPi) is a commercially-available P-Selectin inhibitor manufactured by Tocris BioScience. […] This compound is commonly used for research of immune-related processes such as tumor metastases formation. For the experiment described above, SELPi (0.8 mg/ml) was dissolved in DMSO (0.01%), polyethyleneglycol (93.2 mg/ml), Tween-80 (14.8 mg/ml) and DDW. Mice were injected with 16 mg/kg IV, twice a week, three times a week or QOD as described above. As control (vehicle), mice were injected with DMSO (0.01%), polyethyleneglycol (93.2 mg/ml), Tween-80 (14.8 mg/ml), in DDW at equivalent volume.
MRI imaging. Tumor bearing mice were imaged at the Sackler Cellular & Molecular Imaging Center (SCMIC), Tel Aviv University. […]

[2] = test system: primary human microglia; test: Real-time PCR gene expression (ARG1, iNOS, IL-10, TGF-β) in microglia treated with rSELP; format: cell-based; details: added on top of rSELP; SELPi 0.5 µM, antibodies 2.5 µg/ml, 48 h
Method: To evaluate microglial expression of IL-10 TGF-β, ARG1 and iNOS by primary human microglia (1 × 10^6 cells), cells were seeded in PLL-coated plates. Twenty-four hours post-seeding cells were treated with: 0% serum DMEM alone, or exposed to rSELP (1.5 µg/ml), or exposed to rSELP and SELPi (0.5 µM), or exposed to rSELP and anti-PSGL-1 neutralizing antibody (2.5 µg/ml), or exposed to rSELP and anti-CD44 neutralizing antibody (2.5 µg/ml), or exposed to rSELP and anti-CD24 neutralizing antibody (2.5 µg/ml) for 48 h.
Real-time PCR. The expression level of target genes was assessed by SYBR green real-time PCR (StepOne plus, Life Technologies) and normalized to GAPDH housekeeping gene. Primers used were: […]

[3] = test system: primary human microglia; test: Phagocytosis assay with fluorescent latex beads; format: cell-based; details: added to rSELP; SELPi 0.5 µM, antibodies 2.5 µg/ml
Method: Phagocytosis assay. Primary human/murine microglia were seeded in 96 well plates (1 × 10^5 cells/ml) in microglia medium, microglia medium supplemented with rSELP (1.5 µg/ml for human microglia and 3.5 µg/ml for murine microglia), microglia medium supplemented with rSELP and SELPi (0.5 µM), microglia medium supplemented with rSELP and anti-PSGL-1 neutralizing antibody (2.5 µg/ml), microglia medium 13 supplemented with rSELP and anti-CD44 neutralizing antibody (2.5 µg/ml) or microglia medium supplemented with rSELP and anti-CD24 neutralizing antibody (2.5 µg/ml) for 48 h. The medium was then replaced by fresh microglia medium containing green fluorescence latex beads for 2-6 h and washed with PBS supplemented with Hoechst staining solution for 10 min. For evaluation of murine macrophages phagocytosis abilities, macrophages were seeded in 96 well plates (5 × 10^5 cells/ml), treated with macrophages medium, macrophages medium supplemented with rSELP (3.5 µg/ml), macrophages medium supplemented with rSELP and SELPi (0.5 µM), macrophages medium supplemented with rSELP and anti-PSGL-1 neutralizing antibody (2.5 µg/ml), macrophages medium supplemented with rSELP and anti-CD44 neutralizing antibody (2.5 µg/ml) or macrophages medium supplemented with rSELP and anti-CD24 neutralizing antibody (2.5 µg/ml) for 48 h. […]

[4] = test system: PD-GB4 tumors; test: Local (intraventricular cannula) SELPi treatment in PD-GB PDX model; format: in vivo, SCID mice
Method: as §1
MRI imaging. Tumor bearing mice were imaged at the Sackler Cellular & Molecular Imaging Center (SCMIC), Tel Aviv University. Mice were anesthetized by ketamine (150 mg/kg) and xylazine (12 mg/kg) injected IP. T1 with contrast agent (Magnetol, Gd-DTPA, Soreq M.R.C. Israel Radiopharmaceuticals) and T2 weighted images were taken by 4.7T MRI - MRS 4000™ (MR solutions).

## COc1ccc(C2CC(c3c(O)cc(C)oc3=O)=NCCS2)c(OC)c1 (stereo not shown) [SELPi, 3-[7-(2,4-Dimethoxyphenyl)-2,3,6,7-tetrahydro-1,4-thiazepin-5-yl]-4-hydroxy-6-methyl-2H-pyran-2-one]
[1]
  survival: prolonged the survival
  tumor volume (MRI): significant reduction in tumor volume; also recorded: reduced tumor growth
[2]
  rescue of rSELP effects on ARG1, iNOS, IL-10, TGF-β expression: rescue the effects of rSELP; also recorded: rescued rSELP effects
[3]
  restoration of phagocytic function: restored the phagocytic function
[4]; PD-GB4, 2 mg/kg SELPi intraventricular via cannula, 21 days post injection
  reduction in tumor volume (MRI): 67%
[4]; PD-GB4, local SELPi treatment, day 21
  tumor growth (tumor volume, MRI): delayed growth
[4]; PD-GB4 tumors
  CD31 density: reduction
  Iba1 density: reduction
  invasion of GB cells: reduced
  proliferation of GB cells: reduced
